US5049559A, “Thieno-triazolo-diazepine derivatives useful as anti-ischemic agents” (priority 1989, dated 1991)

Columns and labels:
[1] = target: benzodiazepine receptors; experiment: Inhibition of the binding to benzodiazepine receptors; conditions: rat brains, 1 hour 30 minutes at 4° C., tracers 3H-RO-15-1788 and 3H-RO-5-4864, Table I, read-out: BDZ receptors
Excerpt: 2) Inhibition of the binding to benzodiazepine receptors
The interest of the previous experimentation depends on the results obtained in this experimentation: as a compound of the invention has a benzodiazepine like structure, it is important to check whether the specific benzodiazepine activity would not appear at the dose where platelet aggregation was inhibited.
Therefore, this experimentation has been conducted according to the method of MOHLER H. and RICHARD J. G. Agonist and antagonist benzodiazepine receptor interaction in vitro, Nature, vol. 294, 763-765, 1981.
This experimentation was conducted on rat brains incubated 1 hour 30 minutes at 4° C. using ^3 H-RO-15-1788 and ^3 H-RO-5-4864 (NEN) as tracers and […] and RO-5-4864 as reference antagonists.
The results in molecular concentration are reported in the table I, on the right hand column.

[2] = Global ischemia on gerbils; type: in vivo; conditions: Meriones unguiculatus, 168 h, carotides clamped 10 minutes, hippocampes one week later, 3H-PK 11195, percentage of protection compared to control
Description: 3) Global ischemia on gerbils For this test, males gerbils were anaesthetized with brietal at the doses of 35 mg/kg IP; thereafter, both carotides were clamped for 10 minutes, then the clamping was released. Treated animals received each 10 mg/kg of the compounds of one of the examples. One week later, the animals were killed and both hippocampes were taken, weighed and frozen at -80° C. After crushing with 1 ml of TRIS-HCl pH 7.4 for 30 seconds, aliquots of each 50 μl of this preparation were incubed in each 1 ml of TRIS-HCl buffer containing ^3 H-PK 11195 at 2 nM (90 Ci/mmole, NENE, Germany) for 1 hour at 25° C. For each preparation, 3 determinations were made. The density of omega 3 sites (marked by the specific ^3 H-PK 11195 marker) are expressed in f-moles of PK 11195/mg of fresh tissues and converted in percentage of protection compared to control.

[3] = test system: platelet aggregation induced by PAF; experiment: Inhibition of platelet aggregation induced by PAF; type: cell-based; conditions: Oryctolagus cuniculus, male New Zealand rabbits, Table I
Description: 1) Inhibition of platelet aggregation induced by PAF
This experimentation was conducted according to the method of R. KINLOUGH. RATHBONE, J. P. CAZENAVE, M. PACKHAM and F. MUSTARD, Lab. Invest. 48, 98, 1980. In this test, New Zealand rabbits were used (male New Zealand rabbits of an average weight of 5 kg).
The determinations are made on a chrono-log Coultronics aggregometer, at […] coupled with a graphic recorder; the results of these determinations (in molecular concentration) are reported on the table I on the central column.

Structure (SMILES)	IC50 [1] [nM]	inhibition in vivo at 10 mg/kg [2] [%]	IC50 [3] [nM]
Cc1nnc2n1-c1sc3c(c1C(c1ccccc1Cl)=NC2)CCN(C(=O)CSc1ccccc1C(F)(F)F)C3 [Example 19, 6-(2-chlorophenyl)-9-(2-trifluoromethylphenylthiomethylcarbonyl)-7,8,9, 10-tetrahydro-1-methyl-4H-pyrido [4',3':4,5] thieno [3,2-f] 1,2,4-triazolo[4,3-a] 1,4-diazepine]	270	45.6	6.36
Cc1nnc2n1-c1sc3c(c1C(c1ccccc1Cl)=NC2)CCN(C(=S)CSc1ccccc1C(F)(F)F)C3 [Example 20, 6-(2-chlorophenyl)-9-(2-trifluoromethylphenylthiomethylthiocarbonyl)-7,8,9, 10-tetrahydro-1-methyl-4H-pyrido [4',3':4,5] thieno [3,2-f] 1,2,4-triazolo [4,3-a] 1,4-diazepine]	1600	32.7	146
Cc1nnc2n1-c1sc3c(c1C(c1ccccc1Cl)=NC2)CCN(C(=O)CSc1cccc(C(F)(F)F)c1)C3 [Example 21, 6-(2-chlorophenyl)-9-(3-trifluoromethylphenylthiomethylcarbonyl)-7,8,9, 10-tetrahydro-1-methyl-4H-pyrido [4',3':4,5] thieno [3,2-f] 1,2,4-triazolo[4,3-a] 1,4-diazepine]	810	34.1	8.66
Cc1nnc2n1-c1sc3c(c1C(c1ccccc1Cl)=NC2)CCN(C(=S)CSc1cccc(C(F)(F)F)c1)C3 [Example 22, 6-(2-chlorophenyl)-9-(3-trifluoromethylphenylthiomethylthiocarbonyl)-7,8,9, 10-tetrahydro-1-methyl-4H-pyrido [4',3':4,5] thieno [3,2-f] 1,2,4-triazolo [4,3-a] 1,4-diazepine]	610	48.1	8.18
Cc1nnc2n1-c1sc3c(c1C(c1ccccc1Cl)=NC2)CCN(C(=O)CSc1ccc(C(F)(F)F)cc1)C3 [Example 23, 6-(2-chlorophenyl)-9-(4-trifluoromethylphenylthiomethylcarbonyl)-7,8,9, 10-tetrahydro-1-methyl-4H-pyrido [4',3':4,5] thieno [3,2-f] 1,2,4-triazolo[4,3-a] 1,4-diazepine]	1200	37.5	12.4
Cc1nnc2n1-c1sc3c(c1C(c1ccccc1Cl)=NC2)CCN(C(=S)CSc1ccc(C(F)(F)F)cc1)C3 [Example 24, 6-(2-chlorophenyl)-9-(4-trifluoromethylphenylthiomethylthiocarbonyl)-7,8,9, 10-tetrahydro-1-methyl-4H-pyrido [4',3':4,5] thieno [3,2-f] 1,2,4-triazolo [4,3-a] 1,4-diazepine]	3300	38.7	32.7
Cc1nnc2n1-c1sc3c(c1C(c1ccccc1Cl)=NC2)CCN(C(=O)CSc1ccc(F)cc1)C3 [Example 25, 6-(2-chlorophenyl)-9-(4-fluorophenylthiomethyl-carbonyl)-7,8,9, 10-tetrahydro-1-methyl-4H-pyrido [4',3':4,5] thieno [3,2-f] 1,2,4-triazolo[4,3-a] 1,4-diazepine]	630	14.7	11.3
Cc1nnc2n1-c1sc3c(c1C(c1ccccc1Cl)=NC2)CCN(C(=S)CSc1ccc(F)cc1)C3 [Example 26, 6-(2-chlorophenyl)-9-(4-fluorophenylthiomethyl-thiocarbonyl)-7,8,9, 10-tetrahydro-1-methyl-4H-pyrido [4',3':4,5] thieno [3,2-f] 1,2,4-triazolo[4,3-a] 1,4-diazepine]	610	26.5	6.56
Cc1nnc2n1-c1sc3c(c1C(c1ccccc1Cl)=NC2)CCN(C(=O)CSc1cccc(Cl)c1Cl)C3 [Example 27, 6-(2-chlorophenyl)-9-(2,3-dichlorophenylthiomethyl-carbonyl)-7,8,9, 10-tetrahydro-1-methyl-4H-pyrido [4',3':4,5] thieno [3,2-f] 1,2,4-triazolo[4,3-a] 1,4-diazepine]	48000	33.3	8.45
Cc1nnc2n1-c1sc3c(c1C(c1ccccc1Cl)=NC2)CCN(C(=S)CSc1cccc(Cl)c1Cl)C3 [Example 28, 6-(2-chlorophenyl)-9-(2,3-dichlorophenylthiomethyl-thiocarbonyl)-7,8,9, 10-tetrahydro-1-methyl-4H-pyrido [4',3':4,5] thieno [3,2-f] 1,2,4-triazolo[4,3-a] 1,4-diazepine]	4300	35.3	9.06
Cc1nnc2n1-c1sc3c(c1C(c1ccccc1Cl)=NC2)CCN(C(=O)CSc1ccc(Oc2ccccc2)cc1)C3 [Example 29, 6-(2-chlorophenyl)-9-(4-phenoxyphenylthiomethyl-carbonyl) 7,8,9, 10-tetrahydro-1-methyl-4H-pyrido [4',3':4,5] thieno [3,2-f] 1,2,4-triazolo[4,3-a] 1,4-diazepine]	1230	51.6	9.05
Cc1nnc2n1-c1sc3c(c1C(c1ccccc1Cl)=NC2)CCN(C(=S)CSc1ccc(Oc2ccccc2)cc1)C3 [Example 30, 6-(2-chlorophenyl)-9-(4-phenoxyphenylthiomethyl-thiocarbonyl)-7,8,9, 10-tetrahydro-1-methyl-4H-pyrido [4',3':4,5] thieno [3,2-f] 1,2,4-triazolo[4,3-a] 1,4-diazepine]	360	16.1	104
Cc1nnc2n1-c1sc3c(c1C(c1ccccc1Cl)=NC2)CCN(C(=O)CSc1ccco1)C3 [Example 31, 6-(2-chlorophenyl)-9-(2-furyl-thiomethyl-carbonyl)-7,8,9, 10-tetrahydro-1-methyl-4H-pyrido [4',3':4,5] thieno [3,2-f] 1,2,4-triazolo[4,3-a] 1,4-diazepine]	230	36.2	7.1
Cc1nnc2n1-c1sc3c(c1C(c1ccccc1Cl)=NC2)CCN(C(=S)CSc1ccco1)C3 [Example 32, 6-(2-chlorophenyl)-9-(2-furyl-thiomethyl-thiocarbonyl)-7,8,9, 10-tetrahydro-1-methyl-4H-pyrido [4',3':4,5] thieno [3,2-f] 1,2,4-triazolo[4,3-a] 1,4-diazepine]	1300	30.3	8.75
Cc1nnc2n1-c1sc3c(c1C(c1ccccc1Cl)=NC2)CCN(C(=O)CSc1cccs1)C3 [Example 33, 6-(2-chlorophenyl)-9-(2-thienyl-thiomethyl-carbonyl)-7,8,9, 10-tetrahydro-1-methyl-4H-pyrido [4',3':4,5] thieno [3,2-f] 1,2,4-triazolo[4,3-a] 1,4-diazepine]	5700	24.8	41.2
Cc1nnc2n1-c1sc3c(c1C(c1ccccc1Cl)=NC2)CCN(C(=S)CSc1cccs1)C3 [Example 34, 6-(2-chlorophenyl)-9-(2-thienyl-thiomethyl-thiocarbonyl)-7,8,9, 10-tetrahydro-1-methyl-4H-pyrido [4',3':4,5] thieno [3,2-f] 1,2,4-triazolo[4,3-a] 1,4-diazepine]	720	34.7	128
